From PMC6151437, “Antibacterial Synthetic Peptides Derived from Bovine Lactoferricin Exhibit Cytotoxic Effect against MDA-MB-468 and MDA-MB-231 Breast Cancer Cell Lines” (Molecules : A Journal of Synthetic Chemistry and Natural …, 2017)
Bridge positions count the residues as written; N and C are the ends. Square brackets hold non-standard residues; d marks the D form. Peptide text beside a SMILES is read from it. I, II: the chains in the order shown. Ahx = NCCCCCC(=O)O

Key:
[1] = not given; remark: listed apart in the source

Compound | concentration of maximum cytotoxic effect [µM] | minimum concentration with maximum (optimal) cytotoxic effect [1] [µM]
CSCC[C@H](NC(=O)[C@H](CCCNC(=N)N)NC(=O)[C@H](Cc1c[nH]c2ccccc12)NC(=O)[C@H](CCC(N)=O)NC(=O)[C@H](Cc1c[nH]c2ccccc12)NC(=O)[C@H](CCCNC(=N)N)NC(=O)[C@@H](N)CCCNC(=N)N)C(=O)N[C@@H](CCCCN)C(=O)N[C@@H](CCCCN)C(=O)N[C@@H](CC(C)C)C(=O)NCC(=O)NCCCC[C@H](NC(=O)CNC(=O)[C@H](CC(C)C)NC(=O)[C@H](CCCCN)NC(=O)[C@H](CCCCN)NC(=O)[C@H](CCSC)NC(=O)[C@H](CCCNC(=N)N)NC(=O)[C@H](Cc1c[nH]c2ccccc12)NC(=O)[C@H](CCC(N)=O)NC(=O)[C@H](Cc1c[nH]c2ccccc12)NC(=O)[C@H](CCCNC(=N)N)NC(=O)[C@@H](N)CCCNC(=N)N)C(=O)NCCCCCC(N)=O (I: H-RRWQWRMKKLGK[Ahx]-NH2 / II: H-RRWQWRMKKLG; amide I:12-II:C) | 30 | –
N=C(N)NCCC[C@H](NC(=O)[C@H](Cc1c[nH]c2ccccc12)NC(=O)[C@H](CCC(N)=O)NC(=O)[C@H](Cc1c[nH]c2ccccc12)NC(=O)[C@H](CCCNC(=N)N)NC(=O)[C@@H](N)CCCNC(=N)N)C(=O)NCCCC[C@H](NC(=O)[C@H](CCCNC(=N)N)NC(=O)[C@H](Cc1c[nH]c2ccccc12)NC(=O)[C@H](CCC(N)=O)NC(=O)[C@H](Cc1c[nH]c2ccccc12)NC(=O)[C@H](CCCNC(=N)N)NC(=O)[C@@H](N)CCCNC(=N)N)C(=O)NCCCCCC(=O)N[C@@H](CSSC[C@H](NC(=O)CCCCCNC(=O)[C@H](CCCCNC(=O)[C@H](CCCNC(=N)N)NC(=O)[C@H](Cc1c[nH]c2ccccc12)NC(=O)[C@H](CCC(N)=O)NC(=O)[C@H](Cc1c[nH]c2ccccc12)NC(=O)[C@H](CCCNC(=N)N)NC(=O)[C@@H](N)CCCNC(=N)N)NC(=O)[C@H](CCCNC(=N)N)NC(=O)[C@H](Cc1c[nH]c2ccccc12)NC(=O)[C@H](CCC(N)=O)NC(=O)[C@H](Cc1c[nH]c2ccccc12)NC(=O)[C@H](CCCNC(=N)N)NC(=O)[C@@H](N)CCCNC(=N)N)C(N)=O)C(N)=O (I: H-RRWQWRK[Ahx]C-NH2 / II: H-RRWQWRK[Ahx]C-NH2 / III: H-RRWQWR / IV: H-RRWQWR; amide I:7-III:C, II:7-IV:C; disulfide I:9-II:9) | – | 22
